Where “and” joins values, the source holds several entries; their conditions need not be identical. Equal entries are not always repeated. Where two headings read alike, the source gives them in different places.
Columns and labels:
FXIIa (human) = FXIIa (human) (Homo sapiens, UniProt P00748); settings: FXIIa 0.0045 U/ml, MeSO2-D-HHT-Gly-Arg-pNA 1.02 mmol/l, pH 7.4
Source text: FXIIa Test Mixture (Concentration in the Test)
(§1) 42 mmol/l Tris-HCl, pH 7.4
(§2) 1.02 mmol/l MeSO2 -D-HHT-Gly-Arg-pNA
0.0045 U/ml FXIIa (human)
(§3) 0-50% ethanol or ethylene glycol

rFIXa (human) [1] = target: T1, rFIXa (human) (Homo sapiens, UniProt P00740); settings: fluorogenic MeSO2-D-CHA-Gly-Arg-AMC 0.51 mmol/l, 0.08 μmol/l rFIXa, pH 7.4
Source text: The stimulation of human rFIXa by ethanol and ethylene glycol was examined using the peptide substrates MeSO2 -D-HHT-Gly-Arg-pNA (Pefachrom tPA, Pentapharm Ltd., Basel, Switzerland), MOC-D-Nle-Gly-Arg-pNA (Chromozym X, Boehringer Mannheim GmbH, Mannheim, Germany, Cat.No. 789763), MeSO2 -D-CHG-Gly-Arg-pNA (Pentapharm Ltd., Basel, Switzerland), MeSO2 -D-CHA-Gly-Arg-pNA (Pentapharm Ltd., Basel, Switzerland) and MeSO2 -D-CHA-Gly-Arg-AMC (Pentapharm Ltd., Basel, Switzerland).
Test Mixture Fluorogenic (Concentration in the Test)
0.51 mmol/l MeSO2 -D-CHA-Gly-Arg-AMC
0.08 μmol/l rFIXa (human)
Target sequence in this assay (P00740 227-461): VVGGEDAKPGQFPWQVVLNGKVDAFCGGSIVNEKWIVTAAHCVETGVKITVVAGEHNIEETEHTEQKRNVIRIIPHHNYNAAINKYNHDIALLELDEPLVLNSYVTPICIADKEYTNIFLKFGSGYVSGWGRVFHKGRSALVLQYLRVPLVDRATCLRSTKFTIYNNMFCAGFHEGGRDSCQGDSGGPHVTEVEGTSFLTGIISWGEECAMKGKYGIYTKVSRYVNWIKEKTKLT
Target sequence in this assay (P00740 131-226): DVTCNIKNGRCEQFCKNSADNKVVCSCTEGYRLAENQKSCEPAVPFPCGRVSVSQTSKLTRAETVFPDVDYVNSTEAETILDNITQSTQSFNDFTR

thrombin (bovine) = thrombin (bovine) (Bos taurus, UniProt P00735); settings: thrombin 0.045 μmol/l, MeSO2-D-HHT-Gly-Arg-pNA 1.02 mmol/l, pH 7.4
Source text: Thrombin Test Mixture (Concentration in the Test)
as §1, §2
0.045 μmol/l thrombin (bovine)
as §3

FXa (bovine) = FXa (bovine) (Bos taurus, UniProt P00743); settings: FXa 0.088 μmol/l, MeSO2-D-HHT-Gly-Arg-pNA 1.02 mmol/l, pH 7.4
Source text: FXa Test Mixture (concentration in the Test)
as §1, §2
0.088 μmol/l FXa (bovine)
as §3

[2] = target: plasma kallikrein (human) (Homo sapiens, UniProt P03952); settings: PKallikrein 0.0176 U/ml, MeSO2-D-HHT-Gly-Arg-pNA 1.02 mmol/l, pH 7.4
Source text: Plasma Kallikrein Test Mixture (Concentration in the Test)
as §1, §2
0.0176 U/ml plasma kallikrein (human)
as §3

FXIa (human) = FXIa (human) (Homo sapiens, UniProt P03951); settings: FXIa 0.0012 μmol/l, MeSO2-D-HHT-Gly-Arg-pNA 1.02 mmol/l, pH 7.4
Source text: FXIa Test Mixture (Concentration in the Test)
as §1, §2
0.0012 μmol/l FXIa (human)
as §3

native FIXa (human) = native FIXa (human) (Homo sapiens, UniProt P00740); settings: pH 7.4; for V/V0: MeSO2-D-HHT-Gly-Arg-pNA 1.02 mmol/l, 0.14 μmol/l native FIXa
Protocol: The FIXa test was carried out with recombinantly produced native human FIXa as a sample and the peptide substrate MeSO2 -D-HHT-Gly-Arg-pNA (Pefachrom tPA, Pentapharm Ltd., Basel, Switzerland) or other chromogenic/fluorogenic substrates of the R-D-Xxx-Gly-Arg-pNA type (EP-B 0 034 122) in Tris-HCl buffer and the substances to be tested (alcohol, solvents and inhibitors). The reaction was started by adding FIXa.
The test mixture was incubated at room temperature (25° C.) in a microtitre plate and the change in absorbance (ΔA/min) was measured at 405 nm using an ELISA reader. The activity and the kinetic constants were determined from the linear initial slope according to the Michaelis-Menten equation.
as §2
0.14 μmol/l native FIXa (human)
as §3
FIXa Test Mixture (Concentration in the Test)

rFIXa (human) [3] = target: T1, rFIXa (human); assay: Influence of alcohols and organic solvents on the activity of rFIXa, chromogenic peptide substrates; type: biochemical; set-up: coding for the FIX protease domain from amino acid position 181 to 415; Met (ATG start codon) (N); made in house; settings: for V/V0: pH 7.4
Protocol: The reaction was started by adding FIXa.
MeSO2 -D-HHT-Gly-Arg-pNA→MeSO2 -D-HHT-Gly-Arg+pNA measurement signal: pNA
0.48 μmol/l rFIXa (human)
0-50% (alcohol or organic solvent)
The ratio V/V0 was calculated to illustrate the stimulation of the catalytic activity of rFIXa.
V0, reaction rate without additives
V, reaction rate in the presence of additives
Test Mixture Chromogenic (Concentration in the Test)
Target sequence in this assay (P00740 227-461 limits assumed): as the sequence (P00740 227-461) above
Target sequence in this assay (P00740 131-226 partner limits assumed): as the sequence (P00740 131-226) above

Chain of plasma kallikrein (human) (P03952 391-638 limits assumed): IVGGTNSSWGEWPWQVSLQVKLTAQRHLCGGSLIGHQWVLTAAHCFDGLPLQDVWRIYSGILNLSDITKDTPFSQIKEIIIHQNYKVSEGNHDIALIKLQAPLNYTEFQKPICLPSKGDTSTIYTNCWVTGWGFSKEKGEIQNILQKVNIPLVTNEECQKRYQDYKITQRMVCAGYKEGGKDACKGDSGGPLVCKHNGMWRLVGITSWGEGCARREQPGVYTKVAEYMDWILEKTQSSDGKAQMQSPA
Chain of plasma kallikrein (human) (P03952 20-390 partner limits assumed): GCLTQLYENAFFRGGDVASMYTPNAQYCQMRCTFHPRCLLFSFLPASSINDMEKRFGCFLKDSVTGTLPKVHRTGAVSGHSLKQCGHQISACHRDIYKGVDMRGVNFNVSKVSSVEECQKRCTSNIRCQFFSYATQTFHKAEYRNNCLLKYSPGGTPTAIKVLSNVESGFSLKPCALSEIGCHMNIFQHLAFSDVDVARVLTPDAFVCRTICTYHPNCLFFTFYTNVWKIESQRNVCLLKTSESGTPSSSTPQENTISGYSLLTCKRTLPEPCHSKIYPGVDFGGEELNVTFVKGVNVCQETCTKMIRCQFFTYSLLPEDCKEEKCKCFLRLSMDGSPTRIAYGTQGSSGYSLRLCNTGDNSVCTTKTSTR
Chain of FXa (bovine) (P00743 234-492 limits assumed): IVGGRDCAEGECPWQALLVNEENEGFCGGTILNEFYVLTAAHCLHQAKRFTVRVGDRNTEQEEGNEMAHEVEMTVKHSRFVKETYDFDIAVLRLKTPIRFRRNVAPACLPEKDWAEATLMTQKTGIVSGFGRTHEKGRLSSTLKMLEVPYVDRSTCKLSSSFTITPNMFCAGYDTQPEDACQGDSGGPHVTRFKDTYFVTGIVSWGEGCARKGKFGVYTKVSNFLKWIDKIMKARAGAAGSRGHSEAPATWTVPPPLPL
Chain of FXa (bovine) (P00743 41-180 partner limits assumed): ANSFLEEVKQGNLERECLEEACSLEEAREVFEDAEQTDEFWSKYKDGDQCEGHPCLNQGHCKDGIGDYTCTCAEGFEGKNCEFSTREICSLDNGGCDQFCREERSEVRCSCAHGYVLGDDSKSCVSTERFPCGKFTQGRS
Chain of FXIIa (human) (P00748 373-615 limits assumed, other chains not shown): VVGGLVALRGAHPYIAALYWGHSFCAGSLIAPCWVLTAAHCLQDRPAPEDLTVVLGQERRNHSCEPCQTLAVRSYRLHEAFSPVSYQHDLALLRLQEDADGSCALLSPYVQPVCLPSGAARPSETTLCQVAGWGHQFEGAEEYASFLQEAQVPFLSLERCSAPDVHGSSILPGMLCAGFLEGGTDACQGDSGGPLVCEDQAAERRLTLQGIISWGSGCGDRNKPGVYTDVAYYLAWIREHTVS
Chain of native FIXa (human) (P00740 227-461 limits assumed): as the sequence (P00740 227-461) above
Chain of native FIXa (human) (P00740 47-191 partner limits assumed): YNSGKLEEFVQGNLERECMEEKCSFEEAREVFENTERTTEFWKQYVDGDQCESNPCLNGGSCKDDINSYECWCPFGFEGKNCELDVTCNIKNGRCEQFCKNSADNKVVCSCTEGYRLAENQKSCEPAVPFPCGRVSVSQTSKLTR
Chain of FXIa (human) (P03951 388-625 limits assumed): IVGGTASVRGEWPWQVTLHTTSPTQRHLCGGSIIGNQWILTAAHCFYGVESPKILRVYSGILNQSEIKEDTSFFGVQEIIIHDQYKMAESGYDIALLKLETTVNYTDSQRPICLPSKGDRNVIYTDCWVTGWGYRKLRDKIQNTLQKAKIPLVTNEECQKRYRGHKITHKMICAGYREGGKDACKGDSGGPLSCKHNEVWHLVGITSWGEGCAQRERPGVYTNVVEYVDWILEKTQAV
Chain of FXIa (human) (P03951 19-387 partner limits assumed): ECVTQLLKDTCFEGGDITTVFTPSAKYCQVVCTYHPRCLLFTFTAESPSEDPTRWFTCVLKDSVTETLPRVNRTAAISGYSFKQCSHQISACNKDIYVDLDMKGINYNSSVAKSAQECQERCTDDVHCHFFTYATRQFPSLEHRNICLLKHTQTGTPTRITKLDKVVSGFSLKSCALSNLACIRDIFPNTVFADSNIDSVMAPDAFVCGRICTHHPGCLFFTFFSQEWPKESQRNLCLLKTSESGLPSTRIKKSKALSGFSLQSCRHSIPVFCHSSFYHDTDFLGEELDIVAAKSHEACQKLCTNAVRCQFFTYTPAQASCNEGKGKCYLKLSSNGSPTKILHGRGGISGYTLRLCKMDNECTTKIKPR

OCCO [Ethylene glycol] was tested, and the V/V0 (FXIIa (human); 8% alcohol) was 0.892, the V/V0 (FXIIa (human); 16% alcohol) was 0.729 and the V/V0 (FXIIa (human); 25% alcohol) was 0.551. The V/V0 (FXIIa (human); 33% alcohol) was 0.355, the V/V0 (FXIIa (human); 41% alcohol) was 0.187 and the V/V0 (FXIIa (human); 50% alcohol) was 0.103. It also gave a V/V0 (rFIXa (human) [1]; 8% additive) of 2.55, a V/V0 (rFIXa (human) [1]; 16% additive) of 5.59 and a V/V0 (rFIXa (human) [1]; 25% additive) of 8.40. For the same molecule, the V/V0 (rFIXa (human) [1]; 33% additive) was 8.90 and 9, the V/V0 (rFIXa (human) [1]; 41% additive) was 5.79 and the V/V0 (rFIXa (human) [1]; 50% additive) was 1.44. It also gave a V/V0 (thrombin (bovine); 8% alcohol) of 0.924, a V/V0 (thrombin (bovine); 16% alcohol) of 0.862 and a V/V0 (thrombin (bovine); 25% alcohol) of 0.763. For the same molecule, the V/V0 (thrombin (bovine); 33% alcohol) was 0.653, the V/V0 (thrombin (bovine); 41% alcohol) was 0.508 and the V/V0 (thrombin (bovine); 50% alcohol) was 0.395. For the same molecule, the V/V0 (FXa (bovine); 8% alcohol) was 0.973, the V/V0 (FXa (bovine); 16% alcohol) was 0.902 and the V/V0 (FXa (bovine); 25% alcohol) was 0.741. The V/V0 (FXa (bovine); 33% alcohol) was 0.558, the V/V0 (FXa (bovine); 41% alcohol) was 0.347 and the V/V0 (FXa (bovine); 50% alcohol) was 0.191. The V/V0 ([2]; 8% alcohol) was 1.05, the V/V0 ([2]; 16% alcohol) was 0.763 and the V/V0 ([2]; 25% alcohol) was 0.676. The V/V0 ([2]; 33% alcohol) was 0.536, the V/V0 ([2]; 41% alcohol) was 0.478 and the V/V0 ([2]; 50% alcohol) was 0.290. It also gave a V/V0 (FXIa (human); 8% alcohol) of 0.922, a V/V0 (FXIa (human); 16% alcohol) of 0.790 and a V/V0 (FXIa (human); 25% alcohol) of 0.569. The V/V0 (FXIa (human); 33% alcohol) was 0.422, the V/V0 (FXIa (human); 41% alcohol) was 0.275 and the V/V0 (FXIa (human); 50% alcohol) was 0.165. For the same molecule, the “activation among plasma kallikrein, FXIIa, FXIa, FIXa, FXa and thrombin (in words)” value (native FIXa (human); 0-50% alcohol, MeSO2-D-HHT-Gly-Arg-pNA) was “only FIXa is activated”, the V/V0 (native FIXa (human); 8% additive) was 3.13 and the V/V0 (native FIXa (human); 16% additive) was 6.19. The V/V0 (native FIXa (human); 25% additive) was 9.36, the V/V0 (native FIXa (human); 33% additive) was 12.21 and the V/V0 (native FIXa (human); 41% additive) was 8.29. It also gave a V/V0 (native FIXa (human); 50% additive) of 3.92, a V/V0 (rFIXa (human) [3]; 8% additive, MOC-D-Nle-Gly-Arg-pNA 0.82 mmol/l, 0.48 μmol/l rFIXa) of 3.91 and a V/V0 (rFIXa (human) [3]; 8% additive, MeSO2-D-CHA-Gly-Arg-pNA 1.02 mmol/l, 0.48 μmol/l rFIXa) of 2.84. It also gave a V/V0 (rFIXa (human) [3]; 8% additive, MeSO2-D-CHG-Gly-Arg-pNA 1.02 mmol/l, […] rFIXa) of 5.47, a V/V0 (rFIXa (human) [3]; 8% additive, MeSO2-D-HHT-Gly-Arg-pNA 1.02 mmol/l, 0.48 μmol/l rFIXa) of 2.91 and a V/V0 (rFIXa (human) [3]; 16% additive, MOC-D-Nle-Gly-Arg-pNA 0.82 mmol/l, 0.48 μmol/l rFIXa) of 8.85. It also gave a V/V0 (rFIXa (human) [3]; 16% additive, MeSO2-D-CHA-Gly-Arg-pNA 1.02 mmol/l, 0.48 μmol/l rFIXa) of 6.26, a V/V0 (rFIXa (human) [3]; 16% additive, MeSO2-D-CHG-Gly-Arg-pNA 1.02 mmol/l, […] rFIXa) of 13.13 and a V/V0 (rFIXa (human) [3]; 16% additive, MeSO2-D-HHT-Gly-Arg-pNA 1.02 mmol/l, 0.48 μmol/l rFIXa) of 6.05. The V/V0 (rFIXa (human) [3]; 25% additive, MOC-D-Nle-Gly-Arg-pNA 0.82 mmol/l, 0.48 μmol/l rFIXa) was 17.07, the V/V0 (rFIXa (human) [3]; 25% additive, MeSO2-D-CHA-Gly-Arg-pNA 1.02 mmol/l, 0.48 μmol/l rFIXa) was 9.34 and the V/V0 (rFIXa (human) [3]; 25% additive, MeSO2-D-CHG-Gly-Arg-pNA 1.02 mmol/l, […] rFIXa) was 19.37. The V/V0 (rFIXa (human) [3]; 25% additive, MeSO2-D-HHT-Gly-Arg-pNA 1.02 mmol/l, 0.48 μmol/l rFIXa) was 10.27, the V/V0 (rFIXa (human) [3]; 33% additive, MOC-D-Nle-Gly-Arg-pNA 0.82 mmol/l, 0.48 μmol/l rFIXa) was 22.42 and the V/V0 (rFIXa (human) [3]; 33% additive, MeSO2-D-CHA-Gly-Arg-pNA 1.02 mmol/l, 0.48 μmol/l rFIXa) was 11.18 and 11. It also gave a V/V0 (rFIXa (human) [3]; 33% additive, MeSO2-D-CHG-Gly-Arg-pNA 1.02 mmol/l, […] rFIXa) of 23.20, a V/V0 (rFIXa (human) [3]; 33% additive, MeSO2-D-HHT-Gly-Arg-pNA 1.02 mmol/l, 0.48 μmol/l rFIXa) of 12.68 and a V/V0 (rFIXa (human) [3]; 41% additive, MOC-D-Nle-Gly-Arg-pNA 0.82 mmol/l, 0.48 μmol/l rFIXa) of 17.80. The V/V0 (rFIXa (human) [3]; 41% additive, MeSO2-D-CHA-Gly-Arg-pNA 1.02 mmol/l, 0.48 μmol/l rFIXa) was 7.54, the V/V0 (rFIXa (human) [3]; 41% additive, MeSO2-D-CHG-Gly-Arg-pNA 1.02 mmol/l, […] rFIXa) was 17.40 and the V/V0 (rFIXa (human) [3]; 41% additive, MeSO2-D-HHT-Gly-Arg-pNA 1.02 mmol/l, 0.48 μmol/l rFIXa) was 9.68. The V/V0 (rFIXa (human) [3]; 50% additive, MOC-D-Nle-Gly-Arg-pNA 0.82 mmol/l, 0.48 μmol/l rFIXa) was 6.96, the V/V0 (rFIXa (human) [3]; 50% additive, MeSO2-D-CHA-Gly-Arg-pNA 1.02 mmol/l, 0.48 μmol/l rFIXa) was 2.56 and the V/V0 (rFIXa (human) [3]; 50% additive, MeSO2-D-CHG-Gly-Arg-pNA 1.02 mmol/l, […] rFIXa) was 5.67. The V/V0 (rFIXa (human) [3]; 50% additive, MeSO2-D-HHT-Gly-Arg-pNA 1.02 mmol/l, 0.48 μmol/l rFIXa) was 3.41, the “quotient V/V0 relative to that with substrate MeSO2-D-HHT-Gly-Arg-pNA” value (rFIXa (human) [3]; above 25% ethylene glycol, substrates MOC-D-Nle-Gly-Arg-pNA and MeSO2-D-CHG-Gly-Arg-pNA) was 1.5-2 fold and the “stimulation of the activity of rFIXa” value (rFIXa (human) [3]; concentration range of 15-40%) was 5-15 fold.
